Data as given in patent US10646580B2, “Oligosaccharide conjugates for targeting bacteria and uses related thereto” (priority 2011, dated 2020).
Converted amounts (≈) assume the structure as drawn.

Test system: Escherichia coli (ATCC 33456)
Assay: Ampicillin IC50 in E. coli
Format: cell-based
Conditions: ATCC33456
Experimental: The ability of antibiotics to inhibit the uptake of MDP-1 in Escherichia coli was investigated. Escherichia coli (ATCC 33456) were grown in LB medium at 37° C. under 5% CO2 to an OD600=0.5, as described above. […] Escherichia coli were incubated with ampicillin for 1 hour at 37° C. under 5% CO2, and 60 μL of MDP-1 stock solutions (1 mM in PBS) were added, generating a 20 μM MDP concentration. Escherichia coli were incubated with MDPs in the presence of ampicillin for 1 hour at 37° C. under 5% CO2 in an incubator shaker. At this stage, a small aliquot of the bacterial culture was plated to determine the CFUs of bacteria in the MDP solution. Escherichia coli were harvested by centrifuging and the resulting pellets were washed 3 times with 10 mL PBS. The intracellular fluorescence of the bacteria was determined as described in FIG. 3a.

For `CC1(C)S[C@@H]2[C@H](NC(=O)[C@H](N)c3ccccc3)C(=O)N2[C@H]1C(=O)O` [ampicillin], the IC50 was 3 µg/mL (≈ 8.59 µM).
